Experimental data published in the NIST ThermoML archive (doi:10.1016/j.jct.2012.06.031).

Test: xn = mol fraction of the nth substance listed
Conditions: 101 kPa, Liquid; for viscosity: Concentric cylinders viscometry; for mass density: Vibrating tube method

c1ccncc1 [pyridine] + CCCO
Conditions | mass density [kg/m3] | viscosity [mPa·s]
288.15 K, x1 = 0.1001 | 829.179 | 2.059
288.15 K, x1 = 0.1998 | 849.304 | 1.752
288.15 K, x1 = 0.2999 | 868.538 | 1.533
288.15 K, x1 = 0.3998 | 887.029 | 1.38
288.15 K, x1 = 0.5 | 904.882 | 1.258
288.15 K, x1 = 0.5999 | 922.323 | 1.189
288.15 K, x1 = 0.7 | 939.461 | 1.127
288.15 K, x1 = 0.8 | 956.178 | 1.091
288.15 K, x1 = 0.8998 | 972.394 | 1.065
288.15 K, x1 = 1 | 988.061 | 1.03
293.15 K, x1 = 0.1001 | 825.041 | 1.839
293.15 K, x1 = 0.1998 | 845.036 | 1.577
293.15 K, x1 = 0.2999 | 864.154 | 1.392
293.15 K, x1 = 0.3998 | 882.542 | 1.261
293.15 K, x1 = 0.5 | 900.296 | 1.156
293.15 K, x1 = 0.5999 | 917.643 | 1.096
293.15 K, x1 = 0.7 | 934.697 | 1.043
293.15 K, x1 = 0.8 | 951.331 | 1.012
293.15 K, x1 = 0.8998 | 967.464 | 0.9891
293.15 K, x1 = 1 | 983.038 | 0.9588
298.15 K, x1 = 0.1001 | 820.881 | 1.651
298.15 K, x1 = 0.1998 | 840.744 | 1.426
298.15 K, x1 = 0.2999 | 859.747 | 1.269
298.15 K, x1 = 0.3998 | 878.034 | 1.157
298.15 K, x1 = 0.5 | 895.691 | 1.066
298.15 K, x1 = 0.5999 | 912.947 | 1.014
298.15 K, x1 = 0.7 | 929.913 | 0.9678
298.15 K, x1 = 0.8 | 946.465 | 0.942
298.15 K, x1 = 0.8998 | 962.52 | 0.9212
298.15 K, x1 = 1 | 978.006 | 0.8943
303.15 K, x1 = 0.1001 | 816.69 | 1.488
303.15 K, x1 = 0.1998 | 836.425 | 1.291
303.15 K, x1 = 0.2999 | 855.316 | 1.165
303.15 K, x1 = 0.3998 | 873.5 | 1.064
303.15 K, x1 = 0.5 | 891.065 | 0.9865
303.15 K, x1 = 0.5999 | 908.231 | 0.9414
303.15 K, x1 = 0.7 | 925.114 | 0.9013
303.15 K, x1 = 0.8 | 941.586 | 0.879
303.15 K, x1 = 0.8998 | 957.564 | 0.8608
303.15 K, x1 = 1 | 972.967 | 0.8355
308.15 K, x1 = 0.1001 | 812.466 | 1.355
308.15 K, x1 = 0.1998 | 832.074 | 1.179
308.15 K, x1 = 0.2999 | 850.857 | 1.065
308.15 K, x1 = 0.3998 | 868.942 | 0.9819
308.15 K, x1 = 0.5 | 886.415 | 0.9149
308.15 K, x1 = 0.5999 | 903.494 | 0.8753
308.15 K, x1 = 0.7 | 920.29 | 0.8408
308.15 K, x1 = 0.8 | 936.687 | 0.8222
308.15 K, x1 = 0.8998 | 952.593 | 0.8059
308.15 K, x1 = 1 | 967.913 | 0.7837
313.15 K, x1 = 0.1001 | 808.203 | 1.205
313.15 K, x1 = 0.1998 | 827.676 | 1.076
313.15 K, x1 = 0.2999 | 846.364 | 0.9804
313.15 K, x1 = 0.3998 | 864.355 | 0.9082
313.15 K, x1 = 0.5 | 881.735 | 0.8506
313.15 K, x1 = 0.5999 | 898.73 | 0.8167
313.15 K, x1 = 0.7 | 915.449 | 0.786
313.15 K, x1 = 0.8 | 931.765 | 0.7718
313.15 K, x1 = 0.8998 | 947.604 | 0.7566
313.15 K, x1 = 1 | 962.849 | 0.7354
318.15 K, x1 = 0.1001 | 803.899 | 1.103
318.15 K, x1 = 0.1998 | 823.264 | 0.9855
318.15 K, x1 = 0.2999 | 841.834 | 0.9038
318.15 K, x1 = 0.3998 | 859.731 | 0.8426
318.15 K, x1 = 0.5 | 877.027 | 0.7926
318.15 K, x1 = 0.5999 | 893.938 | 0.7629
318.15 K, x1 = 0.7 | 910.581 | 0.7363
318.15 K, x1 = 0.8 | 926.83 | 0.7244
318.15 K, x1 = 0.8998 | 942.596 | 0.711
318.15 K, x1 = 1 | 957.769 | 0.6912
323.15 K, x1 = 0.1001 | 799.541 | 1.009
323.15 K, x1 = 0.1998 | 818.793 | 0.9116
323.15 K, x1 = 0.2999 | 837.265 | 0.844
323.15 K, x1 = 0.3998 | 855.071 | 0.7875
323.15 K, x1 = 0.5 | 872.286 | 0.7452
323.15 K, x1 = 0.5999 | 889.121 | 0.719
323.15 K, x1 = 0.7 | 905.688 | 0.6954
323.15 K, x1 = 0.8 | 921.867 | 0.6813
323.15 K, x1 = 0.8998 | 937.566 | 0.6741
323.15 K, x1 = 1 | 952.673 | 0.6507
